Reference: ChEMBL document CHEMBL4308854, “Novel indole-thiazolidinone conjugates: Design, synthesis and whole-cell phenotypic evaluation as a novel class of antimicrobial agents” (Eur J Med Chem, 2018)
Converted amounts (≈) assume the structure as drawn.

Key:
PC-3 = test: Growth inhibition of human PC3 cells assessed as cell growth at 10^-5 M incubated for 48 hrs by sulforhodamine B assay relative to control; format: cell-based; design: scale not given: the % may be the effect or the level left; conditions: pc-3, 48 h, 10 µM
MDA-MB-435 = test: Growth inhibition of human MDA-MB-435 cells assessed as cell growth at 10^-5 M incubated for 48 hrs by sulforhodamine B assay relative to control; format: cell-based; design: scale not given: the % may be the effect or the level left; conditions: mda-mb-435, 48 h, 10 µM
A498 = test: Growth inhibition of human A498 cells assessed as cell growth at 10^-5 M incubated for 48 hrs by sulforhodamine B assay relative to control; format: cell-based; design: scale not given: the % may be the effect or the level left; conditions: a498, 48 h, 10 µM
OVCAR-3 = test: Growth inhibition of human OVCAR3 cells assessed as cell growth at 10^-5 M incubated for 48 hrs by sulforhodamine B assay relative to control; format: cell-based; design: scale not given: the % may be the effect or the level left; conditions: ovcar-3, 48 h, 10 µM
Candida albicans [1] = test: Antifungal activity against Candida albicans RCMB 05036 after 24 hrs by serial dilution method; format: functional; conditions: RCMB 05036, 24 h
A549 = test: Growth inhibition of human A549 cells assessed as cell growth at 10^-5 M incubated for 48 hrs by sulforhodamine B assay relative to control; format: cell-based; design: scale not given: the % may be the effect or the level left; conditions: a549, 48 h, 10 µM
Escherichia coli [2] = test: Potency index, ratio of ciprofloxacin MIC to compound MIC for Escherichia coli RCMB 010052; format: functional
HL-60(TB) = test: Growth inhibition of human HL-60(TB) cells assessed as cell growth at 10^-5 M incubated for 48 hrs by sulforhodamine B assay relative to control; format: cell-based; design: scale not given: the % may be the effect or the level left; conditions: 10 µM
Escherichia coli [3] = test: Antibacterial activity against Escherichia coli RCMB 010052 assessed as diameter of zone inhibition after 24 hrs by agar well diffusion assay; format: functional
OVCAR-4 = test: Growth inhibition of human OVCAR4 cells assessed as cell growth at 10^-5 M incubated for 48 hrs by sulforhodamine B assay relative to control; format: cell-based; design: scale not given: the % may be the effect or the level left; conditions: ovcar-4, 48 h, 10 µM
TK-10 = test: Growth inhibition of human TK10 cells assessed as cell growth at 10^-5 M incubated for 48 hrs by sulforhodamine B assay relative to control; format: cell-based; design: scale not given: the % may be the effect or the level left; conditions: tk-10, 48 h, 10 µM
Pseudomonas aeruginosa [4] = test: Antibacterial activity against Pseudomonas aeruginosa RCMB 010043 after 24 hrs by serial dilution method; format: functional; conditions: RCMB 010043, 24 h
OVCAR-8 = test: Growth inhibition of human OVCAR8 cells assessed as cell growth at 10^-5 M incubated for 48 hrs by sulforhodamine B assay relative to control; format: cell-based; design: scale not given: the % may be the effect or the level left; conditions: ovcar-8, 48 h, 10 µM
U-251 = test: Growth inhibition of human U251 cells assessed as cell growth at 10^-5 M incubated for 48 hrs by sulforhodamine B assay relative to control; format: cell-based; design: scale not given: the % may be the effect or the level left; conditions: u-251, 48 h, 10 µM
M14 = test: Growth inhibition of human M14 cells assessed as cell growth at 10^-5 M incubated for 48 hrs by sulforhodamine B assay relative to control; format: cell-based; design: scale not given: the % may be the effect or the level left; conditions: m14, 48 h, 10 µM
CCRF-CEM = test: Growth inhibition of human CCRF-CEM cells assessed as cell growth at 10^-5 M incubated for 48 hrs by sulforhodamine B assay relative to control; format: cell-based; design: scale not given: the % may be the effect or the level left; conditions: 10 µM
Staphylococcus aureus = test: Antibacterial activity against Staphylococcus aureus RCMB 010028 after 24 hrs by serial dilution method; format: functional; conditions: RCMB 010028, 24 h
HCC 2998 = test: Growth inhibition of human HCC2998 cells assessed as cell growth at 10^-5 M incubated for 48 hrs by sulforhodamine B assay relative to control; format: cell-based; design: scale not given: the % may be the effect or the level left; conditions: hcc 2998, 48 h, 10 µM
[5] = system: Mycobacterium tuberculosis; test: Antitubercular activity against Mycobacterium tuberculosis RCMB 010126 clinical isolate after 4 days by microplate alamar blue assay; format: functional; conditions: for MIC: Mycobacterium tuberculosis, RCMB 010126, 96 h
SK-OV-3 = test: Growth inhibition of human SKOV3 cells assessed as cell growth at 10^-5 M incubated for 48 hrs by sulforhodamine B assay relative to control; format: cell-based; design: scale not given: the % may be the effect or the level left; conditions: sk-ov-3, 48 h, 10 µM
NCI-H322M = test: Growth inhibition of human NCI-H322M cells assessed as cell growth at 10^-5 M incubated for 48 hrs by sulforhodamine B assay relative to control; format: cell-based; design: scale not given: the % may be the effect or the level left; conditions: 10 µM
[6] = Selectivity index, ratio of GI50 for mouse RAW264.7 cells to MIC for Mycobacterium aurum infected in mouse RAW264.7 cells; format: toxicity, cell-based; conditions: read-out: Selectivity Index
Malme-3M = test: Growth inhibition of human MALME-3M cells assessed as cell growth at 10^-5 M incubated for 48 hrs by sulforhodamine B assay relative to control; format: cell-based; design: scale not given: the % may be the effect or the level left; conditions: 10 µM
SN12C = test: Growth inhibition of human SN12C cells assessed as cell growth at 10^-5 M incubated for 48 hrs by sulforhodamine B assay relative to control; format: cell-based; design: scale not given: the % may be the effect or the level left; conditions: 10 µM
EKVX = test: Growth inhibition of human EKVX cells assessed as cell growth at 10^-5 M incubated for 48 hrs by sulforhodamine B assay relative to control; format: cell-based; design: scale not given: the % may be the effect or the level left; conditions: 10 µM
NCI-H226 = test: Growth inhibition of human NCI-H226 cells assessed as cell growth at 10^-5 M incubated for 48 hrs by sulforhodamine B assay relative to control; format: cell-based; design: scale not given: the % may be the effect or the level left; conditions: nci-h226, 48 h, 10 µM
ACHN = test: Growth inhibition of human ACHN cells assessed as cell growth at 10^-5 M incubated for 48 hrs by sulforhodamine B assay relative to control; format: cell-based; design: scale not given: the % may be the effect or the level left; conditions: 10 µM
NCI-H522 = test: Growth inhibition of human NCI-H522 cells assessed as cell growth at 10^-5 M incubated for 48 hrs by sulforhodamine B assay relative to control; format: cell-based; design: scale not given: the % may be the effect or the level left; conditions: nci-h522, 48 h, 10 µM
Candida albicans [7] = test: Antifungal activity against Candida albicans RCMB 05036 assessed as diameter of zone inhibition after 48 hrs by agar well diffusion assay; format: functional
[8] = Selectivity index, ratio of IC50 for human WI38 cells to MIC for Mycobacterium tuberculosis RCMB 010126 clinical isolate; format: toxicity; conditions: read-out: Selectivity Index
UACC-257 = test: Growth inhibition of human UACC257 cells assessed as cell growth at 10^-5 M incubated for 48 hrs by sulforhodamine B assay relative to control; format: cell-based; design: scale not given: the % may be the effect or the level left; conditions: uacc-257, 48 h, 10 µM
SF-268 = test: Growth inhibition of human SF268 cells assessed as cell growth at 10^-5 M incubated for 48 hrs by sulforhodamine B assay relative to control; format: cell-based; design: scale not given: the % may be the effect or the level left; conditions: sf-268, 48 h, 10 µM
NCI-H23 = test: Growth inhibition of human NCI-H23 cells assessed as cell growth at 10^-5 M incubated for 48 hrs by sulforhodamine B assay relative to control; format: cell-based; design: scale not given: the % may be the effect or the level left; conditions: nci-h23, 48 h, 10 µM
MCF7 = test: Growth inhibition of human MCF7 cells assessed as cell growth at 10^-5 M incubated for 48 hrs by sulforhodamine B assay relative to control; format: cell-based; design: scale not given: the % may be the effect or the level left; conditions: mcf7, 48 h, 10 µM
WI-38 = test: Cytotoxicity against human WI38 cells by MTT assay; format: cell-based
Escherichia coli [9] = test: Antibacterial activity against Escherichia coli RCMB 010052 after 24 hrs by serial dilution method; format: functional; conditions: RCMB 010052, 24 h
Pseudomonas aeruginosa [10] = test: Potency index, ratio of ciprofloxacin MIC to compound MIC for Pseudomonas aeruginosa RCMB 010043; format: functional

With `CC(=O)c1sc(/N=C2\NC(=O)/C(=C3/C(=O)N(C)c4ccc(Cl)cc43)S2)nc1C` the Activity (PC-3) was 96.23%, the Activity (MDA-MB-435) was 101.04% and the Activity (A498) was 104.41%. The Activity (OVCAR-3) was 96.17%, the MIC (Candida albicans [1]) was 0.49 mg/L (≈ 1.13 µM) and the Activity (A549) was 105.29%. For the same compound, the Ratio (Escherichia coli [2]) was 4, the Activity (HL-60(TB)) was 98.79% and the “diameter of the inhibition zone (DIZ)” value (Escherichia coli [3]) was 25.1 mm. The Activity (OVCAR-4) was 94.35%, the Activity (TK-10) was 118.37% and the MIC (Pseudomonas aeruginosa [4]) was 0.98 mg/L (≈ 2.26 µM). The Activity (OVCAR-8) was 117.64%, the Activity (U-251) was 113.76% and the Activity (M14) was 100.08%. For the same compound, the Activity (CCRF-CEM) was 111%, the MIC (Staphylococcus aureus) was 0.98 mg/L (≈ 2.26 µM) and the Activity (HCC 2998) was 112.5%. For the same compound, the “inhibition (INH)” value [5] was 76.35%, the MIC [5] was 0.39 mg/L (≈ 0.901 µM) and the Activity (SK-OV-3) was 117.19%. For the same compound, the Activity (NCI-H322M) was 96.29%, the selectivity ratio [6] was 5 and the Activity (Malme-3M) was 85.96%. The Activity (SN12C) was 96.85%, the Activity (EKVX) was 95.78% and the Activity (NCI-H226) was 94.2%. For the same compound, the Activity (ACHN) was 104.32%, the Activity (NCI-H522) was 88.75% and the “diameter of the inhibition zone (DIZ)” value (Candida albicans [7]) was 24.1 mm. For the same compound, the selectivity ratio [8] was 50, the Activity (UACC-257) was 114.2% and the Activity (SF-268) was 98.04%. For the same compound, the Activity (NCI-H23) was 96.3%, the Activity (MCF7) was 86.13% and the IC50 (WI-38) was 19.5 mg/L (≈ 45 µM). The MIC (Escherichia coli [9]) was 0.49 mg/L (≈ 1.13 µM) and the Ratio (Pseudomonas aeruginosa [10]) was 4.

For `CCOC(=O)c1sc(/N=C2\NC(=O)/C(=C3/C(=O)N(Cc4ccccc4)c4ccc(Cl)cc43)S2)nc1C`, the Activity (PC-3) was 91.84%, the Activity (MDA-MB-435) was 107.3% and the Activity (A498) was 104.48%. It also gave an Activity (OVCAR-3) of 105.46%, an MIC (Candida albicans [1]) of 1.95 mg/L (≈ 3.62 µM) and an Activity (A549) of 97.17%. The Ratio (Escherichia coli [2]) was 2, the Activity (HL-60(TB)) was 105.41% and the “diameter of the inhibition zone (DIZ)” value (Escherichia coli [3]) was 23.4 mm. For the same compound, the Activity (OVCAR-4) was 110.06%, the Activity (TK-10) was 97.92% and the MIC (Pseudomonas aeruginosa [4]) was 1.95 mg/L (≈ 3.62 µM). For the same compound, the Activity (OVCAR-8) was 103.48%, the Activity (U-251) was 99.74% and the Activity (M14) was 98.8%. The Activity (CCRF-CEM) was 98.38%, the MIC (Staphylococcus aureus) was 0.98 mg/L (≈ 1.82 µM) and the Activity (HCC 2998) was 109.14%. The “inhibition (INH)” value [5] was 75.32%, the MIC [5] was 0.39 mg/L (≈ 0.724 µM) and the Activity (SK-OV-3) was 103.42%. The Activity (NCI-H322M) was 111.22%, the selectivity ratio [6] was 1.25 and the Activity (Malme-3M) was 102.79%. It also gave an Activity (SN12C) of 102.35%, an Activity (EKVX) of 100.9% and an Activity (NCI-H226) of 94.7%. The Activity (ACHN) was 110.67%, the Activity (NCI-H522) was 90.82% and the “diameter of the inhibition zone (DIZ)” value (Candida albicans [7]) was 21.7 mm. For the same compound, the selectivity ratio [8] was 133, the Activity (UACC-257) was 106.14% and the Activity (SF-268) was 93.91%. For the same compound, the Activity (NCI-H23) was 96.32%, the Activity (MCF7) was 97.06% and the IC50 (WI-38) was 52.1 mg/L (≈ 96.7 µM). It also gave an MIC (Escherichia coli [9]) of 0.98 mg/L (≈ 1.82 µM) and a Ratio (Pseudomonas aeruginosa [10]) of 2.
